Experimental data published in patent publication US11266613B2 (priority 2017, dated 2022).
Where “and” joins values, the source holds several entries; their conditions need not be identical. Identical values can stand only once. Like-named read-outs stand apart in the source and are kept apart here.

How the values were obtained:
[1] = tested on: pentobarbitone anaesthetized mice; conditions: bolus dose of 100 mg/kg i.v.
Source text: An initial toxicity study was undertaken in pentobarbitone anaesthetized mice.

[2] = tested on: pentobarbitone anaesthetized rats; conditions: 60 mg/kg i.v. over 20 minutes
Method: A study was carried out to assess tolerability in pentobarbitone anaesthetized rats.

[3] = tested on: arrhythmias which occur early after occlusion of the left coronary artery
Method: Groups of female rats, each in the weight range of 200-300 g, were studied.
The protocol used followed that used in many previous studies seeking dose-related data for novel compounds and reference drugs.
Five minutes after the start of drug delivery the left main coronary artery was occluded (J Mol Cell Cardiol 19: 399-419 1987). This caused a region of ischaemia (verified by the occluded zone, OZ) which was maintained for the duration of the observation period (30 minutes) during which severe arrhythmias caused by the resultant cardiac ischaemia occur (J Mol Cell Cardiol 19: 399-419 1987).
This study was not randomized but was progressed from a low dose to a high dose.
Outcomes were evaluated versus a historical data base of 140 rats treated identically (0.8% saline infusion and coronary artery ligation).
Procedures: • From the ECG, the PR and QT and heart rate were determined. • From a femoral artery catheter, blood pressure (BP) was monitored. • Arrhythmic Score (AS) was determined by counting the number of ventricular premature beats (VPBs) and the occurrence of ventricular tachycardia (VT) and fibrillation (VF) (Cardiovasc Res 22: 656-665, 1988). • Occlusion Zone (OZ) was measured by weight (g) using a dye exclusion method (J Mol Cell Cardiol 19: 399-419 1987).

[4] = tested on: Rat isolated heart; experiment: Rat isolated heart, 30 min regional ischaemia (coronary ligation), VF incidence (Example 2); conditions: for reduction of incidence of ischaemia-induced VF: 30 min regional ischaemia, test solutions 15 μM and 150 μM
Method: Model Choice: • Rat isolated heart, 30 min regional ischaemia (coronary ligation) • High baseline susceptibility to VF • Scope for detection of VF suppression by drugs

[5] = tested on: anaesthetised rats, induced infarction, VF; conditions: for VF-free survival after 30 minutes: 2 mg/kg bolus and 0.5 mg/kg/min infusion, IV before induced infarction, control 0%
Source text: Method: • Randomized, blinded and fully powered trial • Groups of n=6 anaesthetised rats • Test solutions delivered by IV to rat tail vein before induced infarction

[6] = tested on: anaesthetised rats, myocardial infarction
[7] = tested on: Langendorff preparation; conditions: cited from earlier work; for inhibition of VF: administered before or after ischaemia onset, Langendorff preparation
[8] = tested on: patients at high risk of VT or VF following myocardial infarction; conditions: cited from earlier work
[9] = LNO 3 mg/kg total dose i.v. over 20 min, group mean
[10] = LNO 10 mg/kg total dose i.v. over 20 min, group mean
[11] = LNO 10 mg/kg total dose i.v. over 20 min, individual rat
[12] = LNO 30 mg/kg total dose i.v. over 20 min, group mean
[13] = LNO 100 mg/kg total dose i.v. over 20 min, group mean

In the case of `CC[N+]([O-])(CC)CC(=O)Nc1c(C)cccc1C` [LNO, lidocaine N-oxide], the “tolerability of the dose” value [1] is reported as “well tolerated”, the “tolerability of the dose” value [2] is reported as “tolerated” and the “therapeutic window from the threshold effective dose” value ([3]; 3 mg/kg to 30 mg/kg i.v.) is reported as “at least ten-fold”. The “AS (arrhythmia score)” value [3, 9] was 4.5, the “VF (ventricular fibrillation)” value [3, 9] was 0.25 number of episodes and the “VT (ventricular tachycardia)” value [3, 9] was 7.75 number of episodes. The “AS (arrhythmia score)” value ([3]; LNO 3 mg/kg total dose i.v. over 20 min, individual rat) was 7 and 3 (2×) and 5, the “AS (arrhythmia score)” value [3, 10] was 1.67 and the “VT (ventricular tachycardia)” value [3, 10] was 3 number of episodes. For the same compound, the “AS (arrhythmia score)” value [3, 11] was 1 (2×) and 3, the “VF (ventricular fibrillation)” value [3, 11] was 0 number of episodes and the “AS (arrhythmia score)” value [3, 12] was 2. For the same compound, the “VF (ventricular fibrillation)” value [3, 12] was 2 number of episodes, the “VT (ventricular tachycardia)” value [3, 12] was 22 number of episodes and the “AS (arrhythmia score)” value [3, 13] was 2.67. For the same compound, the “VF (ventricular fibrillation)” value [3, 13] was 0.33 number of episodes, the “VT (ventricular tachycardia)” value [3, 13] was 3.67 number of episodes and the “Occl 10’ BP (blood pressure)” value ([3]; LNO 100 mg/kg total dose i.v. over 20 min, individual rat) was “Dead”. For the same compound, the “arrhythmia score (AS) versus control” value ([3]; each tested dose: 3, 10, 30 and 100 mg/kg, 30 min regional ischaemia, vs historical controls) was “significantly reduced”, the off-target actions ([3]; highest dose of LNO, 100 mg/kg) was “one death due to convulsion” and the “dose up to which no off-target effects are seen” value ([3]; rat, in vivo, iv) was 30 mg/kg. For the same compound, the “lowest dose at which antiarrhythmic activity is seen (threshold effective dose)” value ([3]; regional ischaemia, i.v.) was 3 mg/kg, the “effect on PR” value [4] was “did not show any effect” and the “effect on heart rate” value [4] was “only a small effect”. For the same compound, the “reduction of incidence of ischaemia-induced VF” value ([4]; isolated rat heart) was “equally as effective as lidocaine”, the “VF-free survival after 30 minutes” value [5] was 67% and the “effectiveness against VF” value ([5]; anaesthetised rats, IV) was “effective”. The “time post-infarction before a VF event” value ([5]; anaesthetised rats, IV) was “longer time”, the bradyarrhythmias ([5]; rat, in vivo, iv) was “did not” and the survival rate ([6]; anaesthetised rats, LNO directly to the bloodstream prior to myocardial infarction) was 100%. For the same compound, the “signs of excessive reduction in contractile function, decreased heart rate, complete heart block or asystole” value ([6]; rat, in vivo) was “no signs”, the “inhibition of VF” value [7] was “equi-effective” and the “dose-limiting bradycardia or PR interval elongation” value [7] was “didn't induce”.

In the case of `O=C(NCC1CCCCN1)c1cc(OCC(F)(F)F)ccc1OCC(F)(F)F` (centres unmarked) [flecainide], the “increase in the risk of mortality” value [8] is listed as “three-fold”.

For `CCN(CC)CC(=O)Nc1c(C)cccc1C` [lidocaine, reference compound], the “PR interval versus control” value ([4]; 15 μM, during 30 min ischaemia) was “higher”, the “reduction of incidence of ischaemia-induced VF” value ([4]; isolated rat heart) was “equally effective” and the “effect on PR” value ([4]; isolated rat heart, conclusion) was “did show an impact”. For the same compound, the “VF-free survival after 30 minutes” value [5] was 67%, the bradyarrhythmias ([5]; anaesthetised rats, IV) was “led to bradyarrhythmias” and the “effectiveness against VF” value ([5]; anaesthetised rats, IV) was “effective”. The “inhibition of VF” value [7] was “equi-effective”.
